# Where two headings read alike, the source gives them in different places.
# What was measured:
# [1] = test system: A375; assay: In vitro combination assay (combination index, Chou-Talalay, MTS) on A375; type: cell-based, human; conditions: +Vemurafenib; A375 cell line (Tables 3, 4)
# Text: (§2) Cell proliferation viability was investigated using MTS or SRB assay as described previously. An in vitro study of the combination of vemurafenib and the tubulin inhibitors was designed and conducted using CalcuSyn software (Biosoft, Ferguson, Mo.) with five duplicates of each set of treatment. Drug concentrations were selected based on the IC50 value of each drug tested from a pilot study.
# [2] = test system: three melanoma cell lines and four human prostate cancer cell lines; assay: Antiproliferative activity quoted in the SAR text (average of all seven cell lines); type: cell-based
# [3] = Aqueous solubility (Multiscreen Solubility Filter Plate, LC-MS/MS); type: physicochemical
# Method: The solubility of drugs was determined by Multiscreen Solubility Filter Plate (Millipore Corporate, Billerica, Mass.) coupled with LC-MS/MS.
# [4] = in vitro; conditions: human, liver microsomes, pH 7.4
# [5] = test system: B16-F1 melanoma cells; assay: B16-F1 melanoma colony formation assay in soft agar; type: cell-based, mouse; conditions: 14 days; tested 20, 100, 500 nM
# Method: B16-F1 melanoma cells were plated at a colony-forming density (2000 cells per well on six-well plates) on top of 0.8% base agar. Cells were grown in 0.4% agar together with DMEM medium supplemented with fetal bovine serum and an antibiotic-antimycotic solution at 37° C. in an atmosphere of 95% air and 5% CO2. […] Compounds were added to the media from 1 mM DMSO stock solutions, and a corresponding dilution of DMSO was used as control. Cells were grown for 14 days. Plates were photographed, and the number of colonies was measured by Artek 880 Automated Colony Counter (Artek Systems Corporation, Farmingdale, N.Y.).
# [6] = test system: metastasis of melanoma to the lungs; assay: Melanoma lung metastasis model in mice; type: in vivo; conditions: i.p. injection 5 days per week for 2 weeks (FIG. 28)
# Text: Panel A: Representative photos of lungs with melanoma nodules (black dots, n=8 per group). Treatment was i.p. injection 5 days per week for 2 weeks. Panel B: Number of melanoma nodules on each lung. […] Panel C: Mouse body weight changes during the experiment. Points: means; bars: SD. Control: vehicle solution only.
# [7] = test system: A375RF21; assay: In vitro combination assay (combination index) on A375RF21; type: cell-based, human; conditions: Treatment + Vemurafenib
# Text: as §2
# [8] = Pharmacokinetic study in Sprague-Dawley rats; conditions: rat
# [9] = Pharmacokinetic study in ICR mice; conditions: mouse; for MousePK_IV10mgk_Cl / MousePK_IV10mgk_V: IV 10 mg/kg
# Method: All compounds (10 mg/kg) were dissolved in DMSO/PEG300 (1/9) and administered by a single intravenously (i.v.) injection (50 μL) into the tail vein.
# [10] = test system: A375RF21; assay: Cell cycle analysis (flow cytometry) in A375RF21 cells; type: cell-based, human; conditions: resistant A375RF21 cell line
# Method: (§1) Flow cytometry analysis was performed as described before (Wang Z, Chen J, Wang J, et al. “Novel tubulin polymerization inhibitors overcome multidrug resistance and reduce melanoma lung metastasis.” Pharm. Res. (2012) 29: 3040-3052). To determine cell cycle distributions in the G2 and M phases (FIG. 23), cells were harvested with trypsin, stained using antiphospho-histone H3-AlexaFluor® 488 antibody on ice for one hour in the dark, followed by stained using PI/RNase solution for 30 minutes at room temperature in the dark per the manufacturer's instructions (#FCCH025103, EMD Millipore Corporation, Ballerica, Mass.). Data were further processed and graphs were prepared using the Modfit 2.0 program (Verity Software House, Topsham, Me.).
# [11] = test system: A375; assay: Cell cycle analysis (flow cytometry) in parental A375 cells; type: cell-based, human
# Method: as §1
# [12] = test system: A375RF21; assay: Annexin V/propidium iodide apoptosis detection in A375RF21 cells; type: cell-based, human; conditions: 48 hours incubation
# [13] = test system: A375RF21 xenograft; assay: A375RF21 tumor xenograft in nude mice; type: in vivo
# Method: Seven to eight week old male nude mice were purchased from Charles River Laboratories International, Inc. (Wilmington, Mass.). A375RF21 cells were suspended in ice-cold phenol red-free and FBS-free DMEM medium without FBS and mixed with high concentration Matrigel (BD Biosciences, San Joes, Calif.) at ratio of 1:1 right before use. 100 μL of this mixture containing 3×10^6 cells were injected subcutaneously (s.c.) to the left-side dorsal flank of each mouse. One week after the inoculation, the mice were randomized into four groups (n=7 for the initial low dose and n=5 for subsequent high dose drug combination) and the treatments started. […] Vehicle control group was i.p. injected with same volume (100 μL) of PEG300 at the same dosing frequency. At the end of the experiments, mice were euthanized and tumor tissue were isolated, weighted and then fixed in 10% buffered formalin phosphate solution.
# Tumor volume and body weight of each mouse were evaluated three times a week.
# [14] = test system: B16-F1 melanoma; assay: B16-F1 melanoma tumors in C57/BL mice; type: in vivo; conditions: 60 mg/kg; after 13 days of treatment; C57BL/6 mice
# Method: C57BL/6 mice bearing B16-F1 melanoma allograft (n=5 per group). Each mouse received 0.5×10^6 cells by s.c. injection into the flank. 30 μL i.p. daily treatments were started when tumor size reached ˜100 mm^3. […] Control, vehicle solution only; points, means; bars, SD. DTIC, (5-(3,3,-dimethyl-1-triazenyl)-imidazole-4-carboxamide, dacarbazine.
# Female C57/BL mice, age 4-6 weeks, were purchased from Harlan Laboratories (Harlan Laboratories Inc., Indianapolis, Ind.). The animal housing met the Association for Assessment and Accreditation and Laboratory Animal Care specifications. All of the procedures were conducted in accordance with guidelines of our Institutional Animal Care and Use Committee.
# The cell suspension (100 μL) was injected subcutaneously in the right dorsal flank of each mouse. When tumor size reached about 100-150 mm^3, about 7 days after cell inoculation, all mice bearing tumors were divided into control and treatment groups based on tumor size (n=5 per group). Each group had similar average tumor size. Mice in control groups (negative control) were injected intraperitoneally with 50 μL vehicle solution only or DTIC at 60 mg/kg (positive control) once daily. Tumor volume was measured every 2 days with a traceable electronic digital caliper (Fisher Scientific, Inc., Pittsburgh, Pa.) and calculated using the formula a×b^2×0.5, where a and b represented the larger and smaller diameters, respectively. Tumor volume was expressed in cubic millimeters. Data were expressed as mean±SE for each group and plotted as a function of time. […] Animal activity and average body weight of each group were monitored during the entire experiment period to assess compound toxicity. At the end of treatment, all mice were euthanized by CO2 followed by cervical dislocation, and tumors were harvested for further studies.
# [15] = test system: A375 human melanoma xenograft; assay: A375 human melanoma xenograft in SHO nude mice; type: in vivo; conditions: 60 mg/kg; after 31 days of treatment
# Method: FIG. 19 depicts in vivo study of ABI compounds. […] C57BL/6 mice bearing B16-F1 melanoma allograft (n=5 per group). Each mouse received 0.5×10^6 cells by s.c. injection into the flank. 30 μL i.p. daily treatments were started when tumor size reached ˜100 mm^3. […] SHO nude mice bearing an A375 human melanoma xenograft (n=5 per group). Each mouse received 2.5×10^6 cells by s.c. injection into the flank. 30 μL i.p. daily treatments were started when the tumor size reached ˜150 mm^3. Control, vehicle solution only; points, means; bars, SD. DTIC, (5-(3,3,-dimethyl-1-triazenyl)-imidazole-4-carboxamide, dacarbazine.
# Average body weight of all groups increased slightly throughout the experiment period.
# [16] = test system: HL60 tumors; assay: HL60 leukemia xenograft in nude mice; type: in vivo; conditions: vincristine 1 mg/kg intraperitoneal injection once a week
# Method: The dosing schedule was once a week for two weeks. Vincristine (1 mg/mL) was administrated via intraperitoneal injection once a week.
# [17] = test system: PC-3/TxR tumors; conditions: for Tumor size (mm^2) End / Tumor size (mm^2) Start: PC-3/TxR xenograft; for Tumor size (mm^2) End: day 1 and 9, end point day 19; for Tumor size (mm^2) Start: day 1 and 9, start
# [18] = Brain penetration (brain and plasma concentrations) in nude mice; conditions: docetaxel IP 10 mpk, 17ya PO 20 mpk, 55 PO 20 mpk
# [19] = test system: LNCaP; assay: SRB cytotoxicity assay, LNCaP; type: cell-based, human; conditions: Reversed aryl benzoyl imidazole (RABI), Tables 10A/10B; read-out: LNCaP (nM), inhibitory effects
# [20] = test system: PPC-1; assay: SRB cytotoxicity assay, PPC-1; type: cell-based, human; conditions: RABI, Tables 10A/10B; read-out: PPC1 (nM), inhibitory effects
# [21] = test system: PC-3; assay: SRB cytotoxicity assay, PC-3; conditions: read-out: PC3 (nM), inhibitory effects; RABI, Tables 10A/10B
# [22] = test system: Du 145; assay: SRB cytotoxicity assay, Du 145; type: cell-based, human; conditions: RABI, Tables 10A/10B; read-out: DU145 (nM), inhibitory effects
# [23] = vemurafenib 30 mg/kg, 12da 15 mg/kg, n=5
smiles,measurement,setting,value
COc1cccc2c1C(=O)c1c(O)c3c(c(O)c1C2=O)C[C@@](O)(C(=O)CO)C[C@@H]3O[C@H]1C[C@H](N)[C@H](O)[C@H](C)O1 [Doxorubicin],CI value EC75,[1],11.6
"O=C(c1ccc(F)cc1)c1c[nH]c(-c2ccc(OCc3ccccc3)cc2)n1 [12jb, (2-(4-(benzyloxy)phenyl)-1H-imidazol-4-yl)(4-fluorophenyl)methanone]",increase in activity compared with the para-hydroxy compound 12kb,[2],440 fold
"COc1cc(C(=O)c2c[nH]c(-c3ccc(Cl)cc3)n2)cc(OC)c1OC [12fa, (2-(4-chlorophenyl)-1H-imidazol-4-yl)(3,4,5-trimethoxyphenyl)methanone]",solubility at […],"[3]; phosphate buffered saline, aqueous buffer, kinetic from dmso stock, PBS pH 7.4",12 µg/mL
same,half-life at 0.5 μM,[4],44 min
"COc1ccc(-c2nc(C(=O)c3ccc(F)cc3)c[nH]2)cc1 [12cb, (4-fluorophenyl)(2-(4-methoxyphenyl)-1H-imidazol-4-yl)methanone]",concentration showing effective inhibition of B16-F1 colony formation,[5],20 nM
same,metastasis of melanoma to the lungs,[6],inhibition
CC[C@]1(O)C[C@@H]2CN(CCc3c([nH]c4ccccc34)[C@@](C(=O)OC)(c3cc4c(cc3OC)N(C)[C@H]3[C@@](O)(C(=O)OC)[C@H](OC(C)=O)[C@]5(CC)C=CCN6CC[C@]43[C@@H]65)C2)C1 [Vinblastine],CI value EC75,[1],0.78
CC(=O)Nc1cccc(-n2c(=O)n(C3CC3)c(=O)c3c(Nc4ccc(I)cc4F)n(C)c(=O)c(C)c32)c1 [Trametinib],CI ED75,[7],0.90
same,CI ED90,[7],0.90
"COc1cc(C(=O)c2csc(-c3ccccc3)n2)cc(OC)c1OC [1 h, reference compound]",Aqueous solubility,[3]; PBS pH 7.4,(1.1) μg/mL
same,oral bioavailability,[8],3.3%
COc1cc(C(=O)c2c[nH]c(-c3ccc(Cl)cc3)n2)cc(OC)c1OC [drawing 51],Solubility,[3]; aqueous,12 µg/mL
same,MousePK_IV10mgk_Cl,[9],61 mL/min/kg
same,MousePK_IV10mgk_V,[9],4 L/kg
same,MousePK_PO20mgk_AUC,[9]; PO 20 mg/kg,201 µg·min/mL
same,MousePK_PO20mgk_Cmax,[9]; PO 20 mg/kg,2592 ng/mL
same,RatPK_IV5mgk_Cl,[8]; IV 5 mg/kg,16 mL/min/kg
same,RatPK_IV5mgk_V,[8]; IV 5 mg/kg,1.9 L/kg
same,RatPK_PO10mgk_AUC,[8]; PO 10 mg/kg,218 µg·min/mL
same,RatPK_PO10mgk_Cmax,[8]; PO 10 mg/kg,1109 ng/mL
NC1(c2ccc(-c3nc4ccn5c(=O)[nH]nc5c4cc3-c3ccccc3)cc2)CCC1 [MK2206],CI value EC75,[1],0.67
"CCCS(=O)(=O)Nc1ccc(F)c(C(=O)c2c[nH]c3ncc(-c4ccc(Cl)cc4)cc23)c1F [Vemurafenib, reference compound]",concentration of vemurafenib to produce G0/G1 cell cycle arrest,[10],≥ 30 µM
same,concentration of vemurafenib to produce G0/G1 cell cycle arrest,[11],less than 1 μM
same,"counted cell apoptosis or death (percentage sum of Q1, Q2 and Q4)",[12],11.9±3.5%
same,TGI (%),"[13]; 12da 10 mg/kg, vemurafenib 20 mg/kg, i.p. once per day 5 days per week, after 3 weeks of treatment, n=7",22.65 ± 8.31%
same,TGI (%),"[13]; 12da 10 mg/kg, vemurafenib 20 mg/kg, i.p. once per day 5 days per week, after 3 weeks of treatment, n=7, listed as vemurafenib",22.65%
same,Tumor weight (gram),"[13]; 12da 10 mg/kg, vemurafenib 20 mg/kg, after 3 weeks of treatment, n=7",2.05 ± 0.14 gram
same,TGI (%),[13]; [23],28.10 ± 4.81%
same,Tumor weight (gram),[13]; [23],1.05 ± 0.21 gram
same,TGI (%),"[13]; vemurafenib 30 mg/kg, 12da 15 mg/kg, n=5, listed as vemurafenib",28.10%
"CN(C)/N=N/c1[nH]cnc1C(N)=O [DTIC, reference compound]",melanoma tumor growth inhibition (TGI value),[14],51%
same,melanoma tumor growth inhibition (TGI value),[15],52%
CC[C@]1(O)C[C@H]2CN(CCc3c([nH]c4ccccc34)[C@@](C(=O)OC)(c3cc4c(cc3OC)N(C=O)[C@H]3[C@@](O)(C(=O)OC)[C@H](OC(C)=O)[C@]5(CC)C=CCN6CC[C@]43[C@@H]65)C2)C1 [Vincristine],tumor growth inhibition (TGI),[16],84%
COc1cc(C(=O)c2csc(-c3ccccc3)n2)cc(OC)c1OC [drawing 53],half-life at 0.5 μM,[4],17 min
same,MousePK_IV10mgk_Cl,[9],130 mL/min/kg
same,MousePK_IV10mgk_V,[9],4.9 L/kg
same,RatPK_IV5mgk_V,"[8]; IV, 2.5mpk",4.9 (2.5mpk) L/kg
same,RatPK_PO10mgk_AUC,[8]; PO 10 mg/kg,37 µg·min/mL
same,RatPK_Bioavailability,[8]; oral,3.3 % F
CCN(CC)CCNC(=O)c1c(C)[nH]c(/C=C2\C(=O)Nc3ccc(F)cc32)c1C [Sunitinib],CI ED75,[7],0.91
same,CI ED90,[7],0.93
CC(=O)O[C@@]12CO[C@@H]1C[C@H](O)[C@@]1(C)C(=O)[C@H](O)C3=C(C)[C@@H](OC(=O)[C@H](O)[C@@H](NC(=O)OC(C)(C)C)c4ccccc4)C[C@@](O)([C@@H](OC(=O)c4ccccc4)[C@H]21)C3(C)C [Docetaxel],CI ED75,[7],0.80
same,CI ED90,[7],0.90
same,"counted cell apoptosis or death (percentage sum of Q1, Q2 and Q4)",[12],6.4±3.0%
same,Tumor size (mm^2) End,[17]; IV 10mpk,1774 ± 183 mm^2
same,Tumor size (mm^2) Start,[17]; IV 10mpk,143 ± 20 mm^2
same,Tumor size (mm^2) End,[17]; IV 20mpk,999 ± 905 mm^2
same,Tumor size (mm^2) Start,[17]; IV 20mpk,170 ± 80 mm^2
same,TGI (%),"[17]; mouse, in vivo, iv, 10 mg/kg",14%
same,"Brain (ng/mL), 4 hr",[18],20 ± 9 ng/mL
same,"Plasma (ng/mL), 1 hr",[18],768 ± 92 ng/mL
same,"Plasma (ng/mL), 4 hr",[18],345 ± 94 ng/mL
same,"Brain (ng/mL), 1 hr","[18]; mean ± SD, 3 nude mice",33 ± 14 ng/mL
COc1ccc(C(=O)c2nc(-c3cc(OC)c(OC)c(OC)c3)c[nH]2)cc1 [70y],IC50,[19],708 nM
same,IC50,[20],5680 nM
same,IC50,[21],10400 nM
O=C(c1ccc(Br)cc1)c1nc(-c2ccc(Br)cc2)c[nH]1 [70t],IC50,[19],16900 nM
same,IC50,[22],25500 nM
same,IC50,[20],13200 nM
same,IC50,[21],18900 nM

# From patent US10022356B2, “Compounds for treatment of cancer” (UNIVERSITY OF TENNESSEE RESEARCH FOUNDATION, priority 2013, dated 2018)
